Data on four compounds can be found in the NIST ThermoML archive (doi:10.1016/j.jct.2019.05.005).

Numbers after ± are expanded uncertainties.

For this series the following is noted: Liquid; Ebulliometric method (Recirculating still).
On to `C[S+](C)[O-]` [dimethyl sulfoxide], for which the Normal boiling temperature turned out to be 190.02 ± 1 °C.
The result for `CCC(C)OC(C)=O` (centres undefined) [1-methylpropyl ethanoate] reads 112.18 ± 1 °C; that for `CC(=O)N(C)C` [N,N-dimethylethanamide], 165.80 ± 1 °C.
Take `CCC(C)O` (centres undefined) [butan-2-ol]: the Normal boiling temperature worked out at 99.48 ± 1 °C.
